Test results from paper PMC7070407, “Moringin, A Stable Isothiocyanate from Moringa oleifera, Activates the Somatosensory and Pain Receptor TRPA1 Channel In Vitro” (Molecules, 2020).
pEC50: −log10 of the molar value.

Experiments:
rat TRPA1 = target: T1, rat TRPA1 (Rattus norvegicus, UniProt Q6RI86); parameters: method as in PMID 28903060; conditions: TRPA1 in vitro; cited from earlier work
T1 construct: expressed in transfected cells; host or cells: HEK-293

[1] = tested on: not transfected HEK-293 cells; experiment: Effect on [Ca2+]i in not transfected HEK-293 cells (baseline); format: cell-based, human; conditions: AITC 100 μM
Experimental: Compound and extracts’ effects on intracellular Ca^2+ concentration ([Ca^2+]i) were determined using the selective intracellular fluorescent probe for Ca^2+ Fluo-4. Assay of rat TRPA1, TRPV2, TRPV3, TRPV4, TRPM8 or human TRPV1 mediated elevation of intracellular Ca^2+ in transfected HEK-293 cells are been performed as described. Briefly, human embryonic kidney (HEK-293) cells, stably transfected with rat TRPA1, TRPV2, TRPV3, TRPV4, TRPM8 or human TRPV1 (selected by Geneticin 600 μg mL^−1) or not transfected, were cultured in EMEM + 2 mM Glutamine + 1% Non-Essential Amino Acids (NEAA) + 10% FBS and maintained at 37 °C with 5% CO2. Stable transfections were checked by quantitative real-time polymerase chain reaction (PCR), quantitative real-time PCR was performed by an iCycler-iQ (Bio-Rad, Hercules, CA, USA) in a 20 μL reaction mixture containing the following: 10 μL iQ SYBR Green Supermix 2X (Bio-Rad), 20 ng of cDNA (calculated on the basis of the retro-transcribed RNA), and 330 nM for each primer. […] Cell fluorescence before and after the addition of various concentrations of test compounds and extracts were measured normalizing the effects against the response to ionomycin (4 µM). […] The potency of the compounds (EC50 values) are determined as the concentration required to produce half-maximal increases in [Ca^2+]i. […]

T1 sequence (Q6RI86 whole entry): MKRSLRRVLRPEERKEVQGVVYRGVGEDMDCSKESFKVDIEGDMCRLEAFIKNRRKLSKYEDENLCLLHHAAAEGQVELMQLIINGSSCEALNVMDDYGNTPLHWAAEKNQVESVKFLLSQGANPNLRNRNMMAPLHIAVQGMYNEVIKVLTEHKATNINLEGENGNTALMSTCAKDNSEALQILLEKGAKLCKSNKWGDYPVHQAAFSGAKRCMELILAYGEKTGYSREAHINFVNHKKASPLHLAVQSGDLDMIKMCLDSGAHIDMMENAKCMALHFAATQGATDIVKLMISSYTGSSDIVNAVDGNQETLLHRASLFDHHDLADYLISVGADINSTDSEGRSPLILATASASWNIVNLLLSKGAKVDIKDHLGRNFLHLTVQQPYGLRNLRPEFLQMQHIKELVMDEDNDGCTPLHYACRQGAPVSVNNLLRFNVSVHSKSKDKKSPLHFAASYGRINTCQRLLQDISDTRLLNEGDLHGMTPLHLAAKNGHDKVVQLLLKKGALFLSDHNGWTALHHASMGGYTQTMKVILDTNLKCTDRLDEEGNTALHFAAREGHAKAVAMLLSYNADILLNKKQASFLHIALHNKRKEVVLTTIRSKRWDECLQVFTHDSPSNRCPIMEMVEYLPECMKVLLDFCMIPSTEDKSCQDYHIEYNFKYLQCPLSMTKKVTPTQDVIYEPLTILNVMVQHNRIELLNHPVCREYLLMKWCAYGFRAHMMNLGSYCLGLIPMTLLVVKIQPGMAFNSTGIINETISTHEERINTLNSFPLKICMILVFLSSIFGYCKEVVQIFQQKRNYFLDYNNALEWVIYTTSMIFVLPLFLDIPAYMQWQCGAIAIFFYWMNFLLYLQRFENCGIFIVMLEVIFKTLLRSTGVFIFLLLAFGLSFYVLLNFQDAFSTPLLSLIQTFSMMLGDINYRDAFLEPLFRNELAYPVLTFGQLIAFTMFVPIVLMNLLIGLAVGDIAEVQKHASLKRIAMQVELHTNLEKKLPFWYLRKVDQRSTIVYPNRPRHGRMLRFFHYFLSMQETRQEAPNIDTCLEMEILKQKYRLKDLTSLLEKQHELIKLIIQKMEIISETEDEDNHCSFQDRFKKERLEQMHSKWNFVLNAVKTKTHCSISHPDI

| Structure (SMILES) | pEC50 (rat TRPA1) | Effect on not transfected HEK-293 cells [1] |
| --- | --- | --- |
| COc1cc(/C=C/C(=O)CC(=O)/C=C/c2ccc(O)c(OC)c2)ccc1O [curcumin] | 5.48 |  |
| C=CCN=C=S [AITC, Allylisothiocyanate, reference compound] |  | about 1% |
